Data: patent publication US20260315434A1, “USE OF GUAIACOL SESQUITERPENE LACTONE DERIVATIVES” (NANJING UNIVERSITY OF CHINESE MEDICINE, priority 2023, published 2026)
Marks after values point to notes of the source that are not given here.

What was measured:
T cells = test: Proportion of T cells in tumor and spleen of H22 xenograft mice (flow cytometry); format: in vivo, BALB/c mice; details: for Spleen T cells (%) / Tumor T cells (%): 40 μmol/kg/day, oral, 2 weeks, flow cytometry
Method: Once all tumors were dissected, nail-sized tumor pieces were transferred to 1.5 mL Eppendorf tubes and minced with scissors. Transfer the minced tumor tissue suspension to a 15 mL centrifuge tube containing 3-5 mL of digestive enzymes (Collagenase IV 1 mg/mL, Hyaluronidase 1 mg/mL, DNase 120 U/mL). Incubate at 37° C. on a shaking incubator at 200 rpm for 1 hour. After digestion, pass the mixture through a 200-mesh sieve to obtain the tumor cell suspension. Centrifuge the resulting tumor suspension at 1600 rpm for 5 min, aspirate the supernatant, resuspend cells in 1 mL of 1×PBS per tube. Transfer the cell suspension to a 1.5 mL Eppendorf tube, centrifuge at 1600 rpm for 5 min, remove the supernatant, resuspend cells in 100 μL of 1×PBS per tube, add 1 μL of dead/live dye to each tube, mix thoroughly, and incubate at room temperature in the dark for 15 min. […] Position the spleen on a 200-mesh cell strainer. Gently press the spleen using a 10 mL syringe needle. […] Transfer the splenocyte suspension into a 15 mL centrifuge tube. Centrifuge at 1600 rpm for 5 min to collect cells. Wash once with 1×PBS. Add 3 mL red blood cell lysis buffer (diluted with ddH2O) to each tube and incubate for 5 min. After lysis, add 10 mL 1×PBS to each tube to terminate lysis. Centrifuge at 1600 rpm for 5 min. Add 1 mL 1×PBS to each 15 mL centrifuge tube, transfer to 1.5 mL EP tubes, and centrifuge at 1600 rpm for 5 min. Add 1×PBS to each tube containing stained tumor cells and lysed spleen cells for one wash, centrifuge at 1600 rpm for 5 min, and remove the supernatant. Resuspend tumor cells and spleen cells separately in 100 μL 1×PBS. Add 1 μL FcX™ antibody to each tube and incubate at room temperature in the dark for 10 min. After incubation, sequentially add 1 μL each of CD45, CD3, and CD8 antibodies to each tube. Incubate at 4° C. in the dark for 30 min. After staining, wash once with 1 mL PBS. Centrifuge at 1600 rpm for 5 min. Discard the supernatant. Resuspend cells in 300 μL 1×PBS. Filter the cell suspension into a flow cytometry tube and proceed to instrument analysis.

Hepa1-6 cells = test: Antitumor effect in Hepa1-6 mouse hepatocellular carcinoma subcutaneous xenograft model; format: in vivo, C57BL/6 mice
CT26 cells = test: Antitumor effect in CT26 colon cancer mouse subcutaneous model; format: in vivo, BALB/c mice; details: for Tumor inhibition rate (%) / Tumor weight: 80 μmol/kg/day, CT26
H22 cells = test: Antitumor effect in H22 mouse hepatocellular carcinoma subcutaneous xenograft model; format: in vivo, BALB/c mice; details: for Tumor Suppression Rate (%) / Tumor weight: 40 μmol/kg/day, H22 xenograft
MDSCs = test: Proportion of MDSCs in tumor and spleen of H22 xenograft mice (flow cytometry); format: in vivo, BALB/c mice; details: for Spleen MDSCs (%) / Tumor-associated MDSCs (%): 40 μmol/kg/day, oral, 2 weeks, flow cytometry
Method: Once all tumors were dissected, nail-sized tumor pieces were transferred to 1.5 mL Eppendorf tubes and minced with scissors. Transfer the minced tumor tissue suspension to a 15 mL centrifuge tube containing 3-5 mL of digestive enzymes (Collagenase IV 1 mg/mL, Hyaluronidase 1 mg/mL, DNase 120 U/mL). Incubate at 200 rpm and 37° C. for 1 hour. After digestion, pass the mixture through a 200-mesh sieve to obtain the tumor cell suspension. Centrifuge the resulting tumor suspension at 1600 rpm for 5 min, aspirate the supernatant, resuspend cells in 1 mL of 1×PBS per tube. Transfer the cell suspension to a 1.5 mL Eppendorf tube, centrifuge at 1600 rpm for 5 min, remove the supernatant, resuspend cells in 100 μL of 1×PBS per tube, add 1 μL of dead/live dye to each tube, mix thoroughly, and incubate at room temperature in the dark for 15 min. […] Position the spleen on a 200-mesh cell strainer. Gently press the spleen using a 10 mL syringe needle. […] Transfer the washed splenocyte suspension into a 15 mL centrifuge tube. Centrifuge at 1600 rpm for 5 min to collect cells. Wash once with 1×PBS. Add 3 mL red blood cell lysis buffer (diluted with ddH2O) to each tube and incubate for 5 min. After lysis, add 10 mL 1×PBS to each tube to terminate lysis. Centrifuge at 1600 rpm for 5 min. Add 1 mL 1×PBS to each 15 mL centrifuge tube, transfer to 1.5 mL EP tubes, and centrifuge at 1600 rpm for 5 min. Add 1 mL 1×PBS to each tube containing stained tumor cells and lysed spleen cells for one wash, centrifuge at 1600 rpm for 5 min, and remove the supernatant. Resuspend tumor cells and spleen cells separately in 100 μL 1×PBS. Add 1 μL FcX™ antibody to each tube and incubate at room temperature in the dark for 10 min. After incubation, sequentially add 1 μL each of CD45, CD11b, Gr1 antibodies. Incubate at 4° C. in the dark for 30 min. After incubation, wash once with 1×PBS, discard the supernatant, resuspend cells in 300 μL 1×PBS, filter the membrane into a flow cytometry tube, and proceed to instrument analysis.

[1] = system: inflammatory cytokines (TNF, IL-6, IL-1) in renal tissue; test: UUO chronic kidney injury, renal inflammatory factor mRNA; format: in vivo, C57BL/6 mice; design: unit not given here; details: UUO chronic model
From the text: (§1) Chronic Kidney Injury: Mice were randomly divided into five groups. […] Except for the sham-operated mice in the normal group (where only the left ureter was exposed without further manipulation), all other mice underwent unilateral ureteral ligation to establish a chronic kidney injury model as follows: The abdominal skin was disinfected with iodine solution followed by alcohol. An incision was made, and the abdominal layers were dissected sequentially. The left ureter was fully exposed and dissected. A double ligation was performed at the bladder-proximal end of the left ureter using absorbable suture material, followed by closure.
(§2) The blood was allowed to stand at room temperature for 2 hours, then centrifuged at 3000 rpm for 20 minutes. Serum was aspirated, aliquoted, and stored at −70° C. for future use. Following blood collection, euthanize mice by cervical dislocation. Perform laparotomy to remove kidneys, dissect out perirenal fat and capsules. […] Paraffin-embedded specimens undergo HE staining; remaining tissue is stored at −70° C. for future use.

[2] = system: inflammatory factors (TNF, IL-6, IL-1) in renal tissue; test: LPS-induced sepsis, renal inflammatory factor mRNA (Q-PCR); details: for Tnf mRNA expression, kidney: LPS 7.30; for Il1 mRNA expression, kidney: LPS 7.99; for Il6 mRNA expression, kidney: LPS 8.80
From the text: They were acclimated for 7 days before experimentation.
The normal and model groups received equal volumes of solvent (0.5% CMC-Na) via oral gavage.
Specimen Collection: One hour after the final drug administration, mice were euthanized by cervical dislocation. The abdominal cavity was opened, and the lungs, liver, and kidneys were removed. These organs were rinsed twice with pre-chilled PBS. Tissue samples were excised from the mouse lungs, left hepatic lobe, and kidneys. […] Remaining tissues were stored at −70° C. for future use.
Accurately weigh 20 mg of kidney, lung, and liver tissue. Rinse with pre-chilled PBS solution, cut into small pieces using ophthalmic scissors, and place into a glass homogenizer. Add 1 mL of Trizol reagent and grind to prepare tissue homogenate. Transfer the homogenate to a RNAse-free 1.5 mL EP tube and lyse on ice for 10 min. Add 200 μL chloroform, vortex vigorously, and let stand on ice for 3-5 min. Centrifuge at 12,000 rpm and 4° C. for 15 min. Carefully transfer the supernatant to a new RNAse-free 1.5 mL EP tube. Add an equal volume of pre-chilled isopropanol, incubate on ice for 30 min, then centrifuge at 12,000 rpm and 4° C. for 10 min. Discard the supernatant. […] Subsequently, dissolve the pellet in 10 μL DEPC-treated water. Dilute 1 μL of the total RNA solution 100-fold and measure the OD values at 260 nm and 280 nm using a full-wavelength microplate reader.
Following the method described in the kit manual, subsequent experiments were conducted using a 20 μL reverse transcription reaction system:
Primers were designed based on the nucleotide sequence of the mouse in GenBank and synthesized.
Perform subsequent experiments using a 20 μL reaction system according to the kit instructions:
After adding the above reagents to micro reaction tubes, seal them with the cap and place them in the Q-PCR instrument. Set the parameters according to the following reaction conditions to perform the amplification experiment.
Record the threshold cycle (Ct) values for each group and perform calculation and analysis using the 2^−ΔΔCt method (setting the expression level of the reference gene Gapdh as 1 to correct the expression levels of the target genes).
Data Statistics: All data are presented as Means±S.E.M. Analysis of variance (ANOVA) was performed to assess the significance of differences. Groups showing significant differences in ANOVA were further compared using one-way ANOVA and Dunnett's test. A P-value <0.05 was considered statistically significant.

[3] = system: renal injury markers (Ngal, Havcr1) in kidney tissue; test: Unilateral ureteral ligation (UUO) chronic kidney injury, renal injury marker mRNA; format: in vivo, C57BL/6 mice; design: unit not given here; details: UUO chronic model
From the text: as §1, §2

[4] = compared with solvent control, result in words
[5] = 40 μmol/kg/d oral, 2 weeks, solvent 0.92 ± 1.41

C=C1C(=O)O[C@@H]2[C@H]3C(C)=CC[C@@]34O[C@@]4(C)CC[C@@H]12 [Arg, Arglabin, reference compound]
proportion of T cells in tumor tissues and spleens (T cells; mouse, in vivo): significantly increased | Tumor weight (Hepa1-6 cells; mouse, in vivo, po): 0.04 ± 0.03 g | tumor-inhibiting effect, CT26 (CT26 cells; mouse, in vivo, po): tumor-inhibiting effects | tumor-inhibiting effect, H22 (H22 cells; mouse, in vivo, po): tumor-inhibiting effects | proportion of MDSCs in tumor tissues and spleens (MDSCs; mouse, in vivo): significantly reduced

CN(C)C[C@@H]1C(=O)O[C@H]2[C@H]1CC[C@@]1(C)C[C@]13CC[C@@](C)(O)[C@H]23 [Compound 20]
Spleen T cells (%) (T cells): 37.19 ± 6.99 % | Tumor T cells (%) (T cells): 29.44 ± 6.07 % | proportion of T cells in tumor tissues and spleens (T cells; [4]): significantly increased | Il1 mRNA expression, kidney ([1]; 1 mg/kg oral, 1 mg/kg): 2.77 ± 0.40 | Il6 mRNA expression, kidney ([1]; 1 mg/kg oral, 1 mg/kg): 3.69 ± 1.26 | Tnf mRNA expression, kidney ([1]; 1 mg/kg oral, 1 mg/kg): 5.09 ± 0.66 | Tnf mRNA expression, kidney ([2]; 1 mg/kg oral): 6.20 ± 0.60 | Il1 mRNA expression, kidney ([2]; 1 mg/kg oral): 2.76 ± 0.59 | Il6 mRNA expression, kidney ([2]; 1 mg/kg oral): 2.43 ± 0.64 | Tumor inhibition rate (%) (CT26 cells; oral, 3 weeks): 43.36%* | Tumor weight (CT26 cells; oral, 3 weeks): 4.62 ± 1.29 g | tumor-inhibiting effect, CT26 (CT26 cells; oral, 3 weeks, result in words): tumor-inhibiting effects | Tumor Suppression Rate (%) (H22 cells; oral, 2 weeks): 70.86% | Tumor weight (H22 cells; oral, 2 weeks): 4.88 ± 0.87 g | tumor-inhibiting effect, H22 (H22 cells; oral, 2 weeks, result in words): tumor-inhibiting effects | Spleen MDSCs (%) (MDSCs): 23.10 ± 5.35 % | Tumor-associated MDSCs (%) (MDSCs): 7.86 ± 6.19 % | proportion of MDSCs in tumor tissues and spleens (MDSCs; [4]): significantly reduced | Havcr1 mRNA expression, kidney ([3]; 1 mg/kg oral, 1 mg/kg): 6.29 ± 2.43 | Ngal mRNA expression, kidney ([3]; 1 mg/kg oral, 1 mg/kg): 16.14 ± 2.74

CN(C)C[C@@H]1C(=O)O[C@H]2[C@H]1CC[C@@]1(C)C[C@]13CC[C@@](C)(O)[C@H]23 [Compound 21]
Il1 mRNA expression, kidney ([1]; 0.1 mg/kg oral): 5.32 ± 0.56 | Il6 mRNA expression, kidney ([1]; 0.1 mg/kg oral): 14.31 ± 6.01 | Tnf mRNA expression, kidney ([1]; 0.1 mg/kg oral): 7.10 ± 1.93 | Il1 mRNA expression, kidney ([1]; 1 mg/kg oral, 1 mg/kg): 3.55 ± 0.50 | Il6 mRNA expression, kidney ([1]; 1 mg/kg oral, 1 mg/kg): 5.61 ± 2.10 | Tnf mRNA expression, kidney ([1]; 1 mg/kg oral, 1 mg/kg): 7.53 ± 0.68 | Tnf mRNA expression, kidney ([2]; 0.1 mg/kg oral): 6.70 ± 0.80 | Il1 mRNA expression, kidney ([2]; 0.1 mg/kg oral): 6.56 ± 0.88 | Il6 mRNA expression, kidney ([2]; 0.1 mg/kg oral): 6.05 ± 0.19 | Tnf mRNA expression, kidney ([2]; 1 mg/kg oral): 6.04 ± 1.62 | Il1 mRNA expression, kidney ([2]; 1 mg/kg oral): 2.82 ± 0.33 | Il6 mRNA expression, kidney ([2]; 1 mg/kg oral): 2.70 ± 0.52 | Havcr1 mRNA expression, kidney ([3]; 0.1 mg/kg oral): 11.90 ± 4.52 | Ngal mRNA expression, kidney ([3]; 0.1 mg/kg oral): 35.77 ± 7.67 | Havcr1 mRNA expression, kidney ([3]; 1 mg/kg oral, 1 mg/kg): 7.25 ± 0.80 | Ngal mRNA expression, kidney ([3]; 1 mg/kg oral, 1 mg/kg): 19.42 ± 1.55

CC1=C2CC[C@@](C)(OC(=O)N3CCCCC3)[C@@H]2[C@H]2OC(=O)[C@@H](CN(C)C)[C@@H]2CC1 [Compound 102]
Spleen T cells (%) (T cells): 31.69 ± 6.44 % | Tumor T cells (%) (T cells): 20.86 ± 4.15 % | proportion of T cells in tumor tissues and spleens (T cells; [4]): significantly increased | Tumor Inhibition Rate (Hepa1-6 cells; 40 μmol/kg/d oral, 2 weeks): 96.67% | Tumor weight (Hepa1-6 cells; [5]): 0.03 ± 0.04 g | Tumor Suppression Rate (%) (H22 cells; oral, 2 weeks): 27.99% | Tumor weight (H22 cells; oral, 2 weeks): 6.13 ± 1.48 g | tumor-inhibiting effect, H22 (H22 cells; oral, 2 weeks, result in words): tumor-inhibiting effects | Spleen MDSCs (%) (MDSCs): 30.37 ± 9.84 % | Tumor-associated MDSCs (%) (MDSCs): 32.11 ± 6.33 % | proportion of MDSCs in tumor tissues and spleens (MDSCs; [4]): significantly reduced

CC1=C2CC[C@@](C)(OC(=O)N3CCCC3)[C@@H]2[C@H]2OC(=O)[C@@H](CN3CCCC3)[C@@H]2CC1 [Compound 103]
Spleen T cells (%) (T cells): 34.22 ± 4.88 % | Tumor T cells (%) (T cells): 27.62 ± 5.12 % | proportion of T cells in tumor tissues and spleens (T cells; [4]): significantly increased | Il1 mRNA expression, kidney ([1]; 0.1 mg/kg oral): 5.45 ± 2.35 | Il6 mRNA expression, kidney ([1]; 0.1 mg/kg oral): 52.89 ± 40.54 | Tnf mRNA expression, kidney ([1]; 0.1 mg/kg oral): 4.21 ± 0.82 | Il1 mRNA expression, kidney ([1]; 1 mg/kg oral): 3.49 ± 0.93 | Il6 mRNA expression, kidney ([1]; 1 mg/kg oral): 32.19 ± 25.90 | Tnf mRNA expression, kidney ([1]; 1 mg/kg oral): 3.80 ± 0.40 | Il1 mRNA expression, kidney ([1]; 10 mg/kg oral): 3.19 ± 0.85 | Il6 mRNA expression, kidney ([1]; 10 mg/kg oral): 31.08 ± 18.80 | Tnf mRNA expression, kidney ([1]; 10 mg/kg oral): 3.06 ± 0.47 | Tumor Inhibition Rate (Hepa1-6 cells; 40 μmol/kg/d oral, 2 weeks): 96.22% | Tumor weight (Hepa1-6 cells; [5]): 0.03 ± 0.06 g | Tumor inhibition rate (%) (CT26 cells; oral, 3 weeks): 39.72%* | Tumor weight (CT26 cells; oral, 3 weeks): 4.86 ± 0.72 g | tumor-inhibiting effect, CT26 (CT26 cells; oral, 3 weeks, result in words): tumor-inhibiting effects | Tumor Suppression Rate (%) (H22 cells; oral, 2 weeks): 60.34% | Tumor weight (H22 cells; oral, 2 weeks): 5.02 ± 0.48 g | tumor-inhibiting effect, H22 (H22 cells; oral, 2 weeks, result in words): tumor-inhibiting effects | Spleen MDSCs (%) (MDSCs): 24.33 ± 5.02 % | Tumor-associated MDSCs (%) (MDSCs): 10.62 ± 6.50 % | proportion of MDSCs in tumor tissues and spleens (MDSCs; [4]): significantly reduced | Havcr1 mRNA expression, kidney ([3]; 0.1 mg/kg oral): 117.81 ± 37.55 | Ngal mRNA expression, kidney ([3]; 0.1 mg/kg oral): 145.28 ± 50.31 | Havcr1 mRNA expression, kidney ([3]; 1 mg/kg oral): 88.33 ± 33.24 | Ngal mRNA expression, kidney ([3]; 1 mg/kg oral): 118.82 ± 38.60 | Havcr1 mRNA expression, kidney ([3]; 10 mg/kg oral): 93.99 ± 49.52 | Ngal mRNA expression, kidney ([3]; 10 mg/kg oral): 104.98 ± 18.55
